Data published in publication PMC8226452, “PESIN Conjugates for Multimodal Imaging: Can Multimerization Compensate Charge Influences on Cell Binding Properties? A Case Study” (Pharmaceuticals, 2021).
Like-named read-outs stand apart in the source and are kept apart here.

Assays:
[1] = not given; remark: listed apart in the source
[2] = logD by partition between n-octanol and aqueous solution at pH 7.4; format: physicochemical
Description: For the ^68Ga-labeled agents [^68Ga]Ga-2, [^68Ga]Ga-3, [^68Ga]Ga-5, and [^68Ga]Ga-6, and the dyes NIR-820 and 1, the logD values were determined by partition experiments between n-octanol and aqueous solution at pH 7.4.
Determination of logD. The n-octanol/water partition coefficient (logD) of [^68Ga]Ga-2, [^68Ga]Ga-3, [^68Ga]Ga-5, and [^68Ga]Ga-6 was determined as previously described. In brief, 5 µL of the respective radiolabeled product solutions were added to a mixture of n-octanol (800 µL) and phosphate buffered solution (0.05 M, pH 7.4, 795 µL) and vigorously shaken for 5 min. After separation of the phases by centrifugation, 100 µL of each phase was taken and measured in a γ-counter.

[3] = biological target: T1, gastrin-releasing peptide receptor (GRPR) (Homo sapiens, UniProt P30550); assay: Competitive displacement assay with [125I]I-Tyr4-bombesin on stably GRPR-transfected HEK-293 cells; conditions: 10^5 GRPR-transfected HEK-293 cells per well; radioligand [125I]I-Tyr4-bombesin; 11 competitor concentrations (0.25-500 nM for 5 and 6, 0.1-250 nM for BBN); 1 h at ambient temperature; γ-counting; nonlinear regression; at least three experiments, each in triplicate; read-out: IC50 (GRPR binding affinity)
T1 construct: host or cells: HEK-293 (human embryonic kidney) cells, stably GRPR-transfected
Description: Human embryonic kidney 293 cells, stably expressing the GRP receptor (GRPR HEK-293 cells), were obtained from Dr. Martin Béhé, Paul Scherrer Institute, Villingen, Switzerland. Cells were cultured using Dulbecco’s modified Eagle’s medium (DMEM, high glucose, GlutaMax-I, 500 mL), geneticin (G418 Sulfate, 50 mg/mL), Opti-MEM I (GlutaMAX I), RPMI 1640 medium and PenStrep from Gibco, fetal calf serum (FCS) from Bio&sell (Feucht, Germany) and Dulbecco’s phosphate buffered saline (PBS), 0.25% Trypsin and 0.02% EDTA solution in PBS from Sigma-Aldrich (Darmstadt, Germany).
Competitive Receptor Binding Assay. The assays were carried out on stably GRPR-transfected HEK-293 cells as described previously [26, 27]. In brief, 50 µL of a cell suspension containing 10^5 cells was seeded in each well of a Millipore 96-well filter plate. […] After one hour of incubation at ambient temperature, the suspension was filtered and the cells washed thrice with cold PBS. The filter was punched out and measured by γ-counting. […] IC50 values were obtained from at least three different experiments, each performed in triplicate.

[4] = shake-flask, n-octanol (800 µL)/phosphate buffered solution (0.05 M, pH 7.4, 795 µL), 5 µL of 68Ga-labeled product solution, shaken 5 min, centrifugation, 100 µL of each phase measured in γ-counter, read-out: logD (n-octanol/water partition coefficient)

T1 sequence (P30550 whole entry, species assumed): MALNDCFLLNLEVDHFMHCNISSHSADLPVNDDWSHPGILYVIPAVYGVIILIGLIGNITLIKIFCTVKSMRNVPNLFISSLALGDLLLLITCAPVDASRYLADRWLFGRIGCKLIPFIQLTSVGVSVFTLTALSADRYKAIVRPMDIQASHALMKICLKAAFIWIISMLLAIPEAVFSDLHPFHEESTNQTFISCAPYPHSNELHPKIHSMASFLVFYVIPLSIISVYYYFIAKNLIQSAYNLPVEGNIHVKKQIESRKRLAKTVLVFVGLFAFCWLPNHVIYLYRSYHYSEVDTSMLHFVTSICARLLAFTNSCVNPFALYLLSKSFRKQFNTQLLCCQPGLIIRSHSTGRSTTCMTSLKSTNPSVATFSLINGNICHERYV

`CSCC[C@H](NC(=O)[C@H](CC(C)C)NC(=O)[C@H](Cc1c[nH]cn1)NC(=O)CNC(=O)[C@@H](NC(=O)[C@H](C)NC(=O)[C@H](Cc1c[nH]c2ccccc12)NC(=O)[C@H](CCC(N)=O)NC(=O)CCOCCOCCOCCOCCNC(=O)CO/N=C/c1ccc(C(=O)NCCCN(CCCNC(=O)c2ccc(/C=N/OCC(=O)NCCOCCOCCOCCOCCC(=O)N[C@@H](CCC(N)=O)C(=O)N[C@@H](Cc3c[nH]c4ccccc34)C(=O)N[C@@H](C)C(=O)N[C@H](C(=O)NCC(=O)N[C@@H](Cc3c[nH]cn3)C(=O)N[C@@H](CC(C)C)C(=O)N[C@@H](CCSC)C(N)=O)C(C)C)cc2)CC(=O)N[C@@H](CSC2CC(=O)N(CCN3C(=O)CC(SC[C@H](NC(=O)[C@H](CCCCNC(=O)c4ccc5c(c4)C(C)(C)C(/C=C/C4=C(c6ccccc6)C(=C/C=C6/N(CCCCS(=O)(=O)O)c7ccc(C(=O)O)cc7C6(C)C)/CCC4)=[N+]5CCCCS(=O)(=O)[O-])NC(=O)CC[C@H](C(=O)O)N4CCN(CC(=O)O)CCN(CC(=O)O)CC4)C(N)=O)C3=O)C2=O)C(=O)NCCOCCOCC(=O)O)cc1)C(C)C)C(N)=O` (stereo partly shown) showed a λmax(em) of 790 nm and a Stokes Shift [1] of 20 nm.
In the case of `CSCC[C@H](NC(=O)[C@H](CC(C)C)NC(=O)[C@H](Cc1c[nH]cn1)NC(=O)CNC(=O)[C@@H](NC(=O)[C@H](C)NC(=O)[C@H](Cc1c[nH]c2ccccc12)NC(=O)[C@H](CCC(N)=O)NC(=O)CCOCCOCCOCCOCCNC(=O)CO/N=C/c1ccc(C(=O)NCCCN(CCCNC(=O)c2ccc(/C=N/OCC(=O)NCCOCCOCCOCCOCCC(=O)N[C@@H](CCC(N)=O)C(=O)N[C@@H](Cc3c[nH]c4ccccc34)C(=O)N[C@@H](C)C(=O)N[C@H](C(=O)NCC(=O)N[C@@H](Cc3c[nH]cn3)C(=O)N[C@@H](CC(C)C)C(=O)N[C@@H](CCSC)C(N)=O)C(C)C)cc2)CC(=O)N[C@@H](CSC2CC(=O)N(CCN3C(=O)CC(SC[C@H](NC(=O)[C@H](CCCCNC(=O)c4ccc5c(c4)C(C)(C)C(/C=C/C4=C(c6ccccc6)C(=C/C=C6/N(CCCCS(=O)(=O)O)c7ccc(C(=O)O)cc7C6(C)C)/CCC4)=[N+]5CCCCS(=O)(=O)[O-])NC(=O)CC[C@H](C(=O)O)N4CCN(CC(=O)O)CCN(CC(=O)O)CC4)C(N)=O)C3=O)C2=O)C(=O)NCCOCCOCC(=O)O)cc1)C(C)C)C(N)=O` (stereo partly shown) [Compound 5], the “logD (n-octanol/water partition coefficient)” value ([2]; shake-flask, n-octanol (800 µL)/phosphate buffered solution (0.05 M, pH 7.4, 795 µL), 5 µL of 68Ga-labeled product solution, shaken 5 min, centrifugation, 100 µL of each phase measured in γ-counter) is reported as −2.2 ± 0.1 and the IC50 [3] is reported as 59.1 ± 1.49 nM.
In the case of `CC1(C)C(/C=C/C2=C(Cl)C(=C/C=C3\N(CCCCS(=O)(=O)[O-])c4ccc(C(=O)O)cc4C3(C)C)/CCC2)=[N+](CCCCS(=O)(=O)[O-])c2ccc(C(=O)O)cc21.[H+]` [NIR-820, reference compound], the “logD (n-octanol/water partition coefficient)” value ([2]; unlabeled dyes, comparable n-octanol/water partition experiments at pH 7.4, HPLC analysis of the phases instead of γ-counting) is reported as −3.3 ± 0.7.
In the case of `CC1(C)C(/C=C/C2=C(c3ccccc3)C(=C/C=C3/N(CCCCS(=O)(=O)O)c4ccc(C(=O)NCCCC[C@H](NC(=O)CC[C@H](C(=O)O)N5CCN(CC(=O)O)CCN(CC(=O)O)CC5)C(=O)N[C@@H](CS)C(N)=O)cc4C3(C)C)/CCC2)=[N+](CCCCS(=O)(=O)[O-])c2ccc(C(=O)O)cc21` [[^68Ga]Ga-2, metal not drawn], the “logD (n-octanol/water partition coefficient)” value ([2]; pH 7.4) is reported as −2.6 ± 0.1.
For `CC1(C)C(/C=C/C2=C(c3ccccc3)C(=C/C=C3/N(CCCCS(=O)(=O)O)c4ccc(C(=O)NCCCC[C@H](NC(=O)CC[C@H](C(=O)O)N5CCN(CC(=O)O)CCN(CC(=O)O)CC5)C(=O)N[C@@H](CS)C(N)=O)cc4C3(C)C)/CCC2)=[N+](CCCCS(=O)(=O)[O-])c2ccc(C(=O)NCCCC[C@H](NC(=O)CC[C@H](C(=O)O)N3CCN(CC(=O)O)CCN(CC(=O)O)CC3)C(=O)N[C@@H](CS)C(N)=O)cc21` [[^68Ga]Ga-3, metal not drawn], the logD ([2]; pH 7.4) was -2.9 ± 0.1.
For `CSCC[C@H](NC(=O)[C@H](CC(C)C)NC(=O)[C@H](Cc1c[nH]cn1)NC(=O)CNC(=O)[C@@H](NC(=O)[C@H](C)NC(=O)[C@H](Cc1c[nH]c2ccccc12)NC(=O)[C@H](CCC(N)=O)NC(=O)CCOCCOCCOCCOCCNC(=O)CO/N=C/c1ccc(C(=O)NCCCN(CCCNC(=O)c2ccc(/C=N/OCC(=O)NCCOCCOCCOCCOCCC(=O)N[C@@H](CCC(N)=O)C(=O)N[C@@H](Cc3c[nH]c4ccccc34)C(=O)N[C@@H](C)C(=O)N[C@H](C(=O)NCC(=O)N[C@@H](Cc3c[nH]cn3)C(=O)N[C@@H](CC(C)C)C(=O)N[C@@H](CCSC)C(N)=O)C(C)C)cc2)CC(=O)N[C@@H](CSC2CC(=O)N(CCN3C(=O)CC(SC[C@H](NC(=O)[C@H](CCCCNC(=O)c4ccc5c(c4)C(C)(C)C(/C=C/C4=C(c6ccccc6)C(=C/C=C6/N(CCCCS(=O)(=O)O)c7ccc(C(=O)O)cc7C6(C)C)/CCC4)=[N+]5CCCCS(=O)(=O)[O-])NC(=O)CC[C@H](C(=O)O)N4CCN(CC(=O)O)CCN(CC(=O)O)CC4)C(N)=O)C3=O)C2=O)C(=O)NCCOCCOCC(=O)O)cc1)C(C)C)C(N)=O` (stereo partly shown) [[^68Ga]Ga-5, metal not drawn], the logD [2, 4] was -2.2 ± 0.1.
In the case of `CSCC[C@H](NC(=O)[C@H](CC(C)C)NC(=O)[C@H](Cc1c[nH]cn1)NC(=O)CNC(=O)[C@@H](NC(=O)[C@H](C)NC(=O)[C@H](Cc1c[nH]c2ccccc12)NC(=O)[C@H](CCC(N)=O)NC(=O)CCOCCOCCOCCOCCNC(=O)CO/N=C/c1ccc(C(=O)NCCCN(CCCNC(=O)c2ccc(/C=N/OCC(=O)NCCOCCOCCOCCOCCC(=O)N[C@@H](CCC(N)=O)C(=O)N[C@@H](Cc3c[nH]c4ccccc34)C(=O)N[C@@H](C)C(=O)N[C@H](C(=O)NCC(=O)N[C@@H](Cc3c[nH]cn3)C(=O)N[C@@H](CC(C)C)C(=O)N[C@@H](CCSC)C(N)=O)C(C)C)cc2)CC(=O)N[C@@H](CSC2CC(=O)N(CCN3C(=O)CC(SC[C@H](NC(=O)[C@H](CCCCNC(=O)c4ccc5c(c4)C(C)(C)C(/C=C/C4=C(c6ccccc6)C(=C/C=C6/N(CCCCS(=O)(=O)O)c7ccc(C(=O)NCCCC[C@H](NC(=O)CC[C@H](C(=O)O)N8CCN(CC(=O)O)CCN(CC(=O)O)CC8)C(=O)N[C@@H](CSC8CC(=O)N(CCN9C(=O)CC(SC[C@H](NC(=O)CN(CCCNC(=O)c%10ccc(/C=N/OCC(=O)NCCOCCOCCOCCOCCC(=O)N[C@@H](CCC(N)=O)C(=O)N[C@@H](Cc%11c[nH]c%12ccccc%11%12)C(=O)N[C@@H](C)C(=O)N[C@H](C(=O)NCC(=O)N[C@@H](Cc%11c[nH]cn%11)C(=O)N[C@@H](CC(C)C)C(=O)N[C@@H](CCSC)C(N)=O)C(C)C)cc%10)CCCNC(=O)c%10ccc(/C=N/OCC(=O)NCCOCCOCCOCCOCCC(=O)N[C@@H](CCC(N)=O)C(=O)N[C@@H](Cc%11c[nH]c%12ccccc%11%12)C(=O)N[C@@H](C)C(=O)N[C@H](C(=O)NCC(=O)N[C@@H](Cc%11c[nH]cn%11)C(=O)N[C@@H](CC(C)C)C(=O)N[C@@H](CCSC)C(N)=O)C(C)C)cc%10)C(=O)NCCOCCOCC(=O)O)C9=O)C8=O)C(N)=O)cc7C6(C)C)/CCC4)=[N+]5CCCCS(=O)(=O)[O-])NC(=O)CC[C@H](C(=O)O)N4CCN(CC(=O)O)CCN(CC(=O)O)CC4)C(N)=O)C3=O)C2=O)C(=O)NCCOCCOCC(=O)O)cc1)C(C)C)C(N)=O` (stereo partly shown) [[^68Ga]Ga-6, metal not drawn], the Stokes Shift [1] is reported as 20 nm and the logD [2, 4] is reported as -1.8 ± 0.1.
